Measurements reported in US8426386B2, “NK1 receptor antagonist composition” (Lion Corporation, priority 2006, dated 2013).

Test system: NK1 receptor
Experiment: NK1 Receptor Antagonism Assay (calcium imaging, substance P stimulation)
Assay type: cell-based, human
Conditions: for Efficacy (NK1 receptor antagonistic activity grade): evaluated concentration 1000 ppm, substance P 100 μM; for effect as the NK1 receptor antagonist (in words): summary of Table 1
Excerpt: [Performance Evaluation Test] NK1 Receptor Antagonism Assay
In this test, maltose, maltotriose, maltotetraose, maltopentaose, maltohexaose and maltoheptaose were purchased from SIGMA, isomaltose, isomaltotriose, isomaltotetraose, isomaltopentaose, isomaltohexaose and isomaltoheptaose were purchased from Seikagaku Corporation, and four types of oligosaccharides-1-kestose, fructofranosylnystose, nystose and galactotetraose—were purchased from Wako Pure Chemicals Industries Ltd. Each oligosaccharide was diluted with saline, and used.
In order to transiently express a cloned human NK1 receptor in HEK293, cDNA of the human NK1 receptor was cut out from pCDM8 (Invitrogen), and cloned in an expression vector pCDM9 derived by inserting an ampicillin resistant gene (BLUESCRIPT, nucleotides 1973 to 2964 from SK+) at a SacII site.
HEK293 cells were seeded at 1×10^5 cells in a Falcon dish (diameter: 3.5 cm) using α-MEM medium (Gibco) containing 10% bovine fetal serum, and cultured in a 5% CO2 incubator at 37° C. overnight. Then, 20 μg of the expression vector was transfected using Transfection Reagent FuGENE6 (Roche) according to attached instructions, and the transfectants were incubated at 37° C. for 3 days and assayed by a calcium imaging method.
According to Renganathan et al's method (Renganathan M et al., J. Neurophysiol., 84(2), […] (2000)), nerve cells were dispersed and isolated from spinal dorsal root ganglion in a wild type mouse, and 1×10^5 thereof were seeded in a 24-well plate coated with poly-L-lysine. The cells were cultured in 90% DMEM medium (GIBCO) supplemented with 10% bovine fetal serum, 2 mM glutamine, 100 U/mL of penicillin/streptomycin, 100 ng/mL of NGF (SIGMA) and 5 μM cytosine arabinoside (SIGMA) under 5% CO2 at 37° C. The cells were cultured for 1 to 3 weeks, and subsequently subjected to a calcium imaging analysis. A half of the nerve cells was identified to be positive for the NK1 receptor by staining the nerve cells derived from spinal dorsal root ganglion in the wild type mouse with an anti-NK1 receptor antibody (supplied from CHEMICON International).
The cells which express the NK1 receptor transiently or constitutively were subjected to measurement using a high resolution digital B/W cooling CCD camera (ORCA supplied from Hamamatsu Photonics K.K.), and their images were analyzed using an analysis software (AQUA COSMOS supplied from Hamamatsu Photonics K.K.). When the cells were labeled for calcium, Fluo4-AM (supplied from Molecular Probe) was used as a calcium sensitive dye. Fifty μg of Fluo4-AM was dissolved in 400 μL of DMSO in a vial, 4 μL of Pluronic F-127 (Molecular Probe) was added and mixed, and then 4 mL of OPTI-MEM (GIBCO) was added thereto. The calcium sensitive dye solution thus prepared was added to the cells, which were then incubated at 37° C. for 60 minutes. An agonist, an antagonist and samples to be evaluated were prepared at concentrations which were 10 times higher than assay concentrations, and analyzed by adding a one tenth volume of the cell suspension upon analysis. All reagents and an assay temperature were kept at 37° C. For the cells transfected transiently, YFP reporter DNA fluorescence (excitation: 490 nm) was used for identifying the transfected cells. Upon measurement, a fluorescence intensity obtained by initially imaging the untreated cells was made an initial value. After passing one minute, a change of calcium/fluorescence intensity in the sample to be evaluated at the desired concentration was monitored with an interval of one second before and after the addition (2 to 5 minutes). Subsequently, substance P was added, and immediately after (2 to 5 minutes), an antagonistic activity of the sample to be evaluated was determined by monitoring the change of intracellular calcium concentrations as the change of the fluorescence intensities with the interval of one second. […]

OC[C@H]1O[C@H](OC[C@H]2O[C@H](OC[C@H]3O[C@H](OC[C@H]4O[C@H](OC[C@H]5OC(O)[C@H](O)[C@@H](O)[C@@H]5O)[C@H](O)[C@@H](O)[C@@H]4O)[C@H](O)[C@@H](O)[C@@H]3O)[C@H](O)[C@@H](O)[C@@H]2O)[C@H](O)[C@@H](O)[C@@H]1O (stereo partly shown) [Isomaltopentaose, isomaltopentaose, reference compound]
Efficacy (NK1 receptor antagonistic activity grade): D (Ineffective: the antagonistic activity was less than 65%, or the stimulating or agonistic activity of the sample was strong.)
effect as the NK1 receptor antagonist (in words): no NK1 receptor antagonistic activity was observed at all

OC[C@H]1O[C@H](OC[C@H]2O[C@H](OC[C@H]3O[C@H](OC[C@H]4OC(O)[C@H](O)[C@@H](O)[C@@H]4O)[C@H](O)[C@@H](O)[C@@H]3O)[C@H](O)[C@@H](O)[C@@H]2O)[C@H](O)[C@@H](O)[C@@H]1O (stereo partly shown) [Isomaltotetraose, isomaltotetraose, reference compound]
Efficacy (NK1 receptor antagonistic activity grade): D (Ineffective: the antagonistic activity was less than 65%, or the stimulating or agonistic activity of the sample was strong.)
effect as the NK1 receptor antagonist (in words): no NK1 receptor antagonistic activity was observed at all
